Test results reported in patent US20220098197A1, “SALTS OF HETEROCYCLIC COMPOUND AND USE THEREOF” (priority 2019, published 2022).

Experiments:
LPS-induced ALI mice = assay: LPS-induced ALI model: lung weight coefficient; format: in vivo, Balb/c mice; details: CT-NA 10 or 30 mg/kg (P<0.01, dose-dependent), Dex 1 mg/kg; 24 hrs after LPS
Description: Specific pathogen-free (SPF) Balb/c mice (♂/♀; 20-26 g; 8 weeks old) were purchased from Shanghai SIPPR-BK Experimental Animal Co., Ltd. Mice were kept in an isolated ventilated cage in an environment of 40-60% humidity, 24±2° C., and 12 hrs/12 hrs dark-light cycle, and had free access to food and water. The method for preparing the LPS-induced ALI model was simply described as follows. The mice were randomly divided into a control group (12 mice) and an LPS group (48 mice). The LPS group (48 mice) was further divided into four subgroups (12 mice in each subgroup). […] 24 hrs after LPS challenge, the oxygen saturation (SO2) of all mice was measured by a Moor VMS-OXY™ instrument which measured SO2 (%) in the microcirculation at the wavelength range of 500 to 650 nm. […]
The mice were euthanized to expose the trachea, and then the right lungs were lavaged three times with 0.4 mL/time of sterile normal saline containing bovine serum albumin (BSA) and 5000 IU/L heparin to collect the BALF via tracheal tube. […] The removed lung tissues were weighted after aspirating the surface blood, and the lung weight coefficient was calculated. The lung weight coefficient was an indicator of pulmonary edema, and it was measured by dividing the individual lung weight of each mouse by its total body weight.

RAW264.7 macrophages = assay: In vitro ELISA assay, LPS- or PGD2-stimulated RAW264.7; format: cell-based, mouse; details: CT-NA 10 and 100 μM, dose-dependent
Description: For ELISA and RT-PCR, RAW 264.7 macrophages were acclimated to two 12-well plates at 70-80% confluence. Thereafter, the medium in the 12-well plate was replaced with serum-free RPMI-1640 medium for 10-12 hrs and then exposed to CT-NA (10 and 100 μM) for 1 hour. One hour later, one 12-well plate was treated with LPS (100 ng/ml) for 24 hrs, and the other was treated with PGD2 (10 μM) for 24 hrs. After the treatment, the supernatant of the treated cells was collected to measure the protein levels of TNF-α, IL-1β, IL-6, and KC using ELISA kits according to the method of the instructions. Subsequently, RNA samples from each treated plate were extracted and reverse-transcripted into cDNA with HiScript5xQRTSuperMix, and then subjected to RT-PCR using BioRad CFX96 Touch™ real-time PCR detection system (San Diego, Calif.). Similarly, total RNAs extracted from treated isolated peritoneal macrophages were subjected to analyze the mRNA levels of IL-10, TNF-α, IL-6 and KC. The primers used in the RT-PCR reaction were shown in Table 2. β-actin was used as an internal control. The RT-PCR reactions were triplicated and the relative expression of target mRNA was normalized by the respective β-actin.

[1] = Stability test (influencing factors: light, high temperature, high humidity); format: physicochemical
Description: Test process: An appropriate amount of each test sample was placed on a clean watch glass without a lid and then placed under the conditions of light 4500 lx±500 lx, high temperature of 60° C., high humidity of 92.5% RH for 5 days and 10 days, respectively. The properties and related substances were determined and the results were compared with the results at day 0 to observe the stability.
The test method for related substances was as follows.
Preparation of test sample solution: About 10 mg of each test sample was placed in a 10 ml volumetric flask, and 50% acetonitrile aqueous solution was added to dissolve sample, and diluted to the mark, shaken well, and filtered to obtain the test sample solution. A precise amount of 10 μl of the test sample solution was taken and injected according to the above chromatographic method, and the maximum single impurity and total impurity were calculated according to the area normalization method.

[2] = high temperature 60° C., Day 10
[3] = light condition 4500 lx±500 lx, Day 5
[4] = light condition 4500 lx±500 lx, Day 10

In the case of `CN([C@@H]1CCc2c(CC(=O)[O-])c3cccnc3n2C1)S(=O)(=O)c1ccc(F)cc1.[Na+]` [Sodium salt hydrate], the “lung wet weight coefficient” value (LPS-induced ALI mice) is reported as “notably reduced”, the “protein expression of IL-1β, TNF-α, IL-6 and KC in response to LPS” value (RAW264.7 macrophages; LPS (100 ng/ml) 24 hrs) is reported as “inhibited” and the “protein expression of IL-1β, TNF-α, IL-6 and KC in response to PGD2” value (RAW264.7 macrophages; PGD2 (10 μM) 24 hrs) is reported as “inhibited”. For the same molecule, the “stability under high temperature and high humidity conditions (in words)” value ([1]; 60° C., 92.5% RH, 5 and 10 days) was “relatively stable”, the “maximum single impurity %” value ([1]; Day 0) was 0.03% and the property ([1]; Day 0) was “white powder”. For the same molecule, the total impurity % ([1]; Day 0) was 0.07%, the “maximum single impurity %” value ([1]; high humidity 92.5% RH, Day 5) was 0.02% and the property ([1]; high humidity 92.5% RH, Day 5) was “white powder”. The total impurity % ([1]; high humidity 92.5% RH, Day 5) was 0.07%, the “maximum single impurity %” value ([1]; high humidity 92.5% RH, Day 10) was 0.02% and the property ([1]; high humidity 92.5% RH, Day 10) was “white powder”. The total impurity % ([1]; high humidity 92.5% RH, Day 10) was 0.06%, the “maximum single impurity %” value ([1]; high temperature 60° C., Day 5) was 0.02% and the property ([1]; high temperature 60° C., Day 5) was “white powder”. For the same molecule, the total impurity % ([1]; high temperature 60° C., Day 5) was 0.07%, the “maximum single impurity %” value [1, 2] was 0.02% and the property [1, 2] was “white powder”. For the same molecule, the total impurity % [1, 2] was 0.09%, the “maximum single impurity %” value [1, 3] was 0.06% and the property [1, 3] was “light yellow powder”. The total impurity % [1, 3] was 0.16%, the “maximum single impurity %” value [1, 4] was 0.15% and the property [1, 4] was “light yellow powder”. For the same molecule, the total impurity % [1, 4] was 0.26%.
